From patent US4263427A, “Monensin urethane derivatives” (priority 1979, dated 1981)
Converted amounts (≈) assume the structure as drawn. Like-named read-outs stand apart in the source and are kept apart here.

Columns and labels:
Bacillus megaterium 8CU = assay: Minimum Inhibitory Concentration, agarwell diffusion assay (Table 6); assay type: cell-based; details: for MIC: Priestia megaterium, 8CU, read-out: Minimum Inhibitory Concentration, Bacillus megaterium 8CU; for Minimum Inhibitory Concentration: Bacillus megaterium 8CU
From the text: (§1) (a) Lowest twofold dilution giving zone of inhibition in the agarwell
(§2) (b) NRRL collection number, all the rest ate ATCC numbers.

Bacillus sp. TA 27860 = assay: as above; assay type: cell-based; details: for MIC: Bacillus, SP.TA27860, Bacillus sp. TA 27860, read-out: Minimum Inhibitory Concentration
From the text: as §1, §2

Sarcina lutca 9341 = assay: as above; assay type: cell-based; details: for MIC: Sarcina, 9341, read-out: Minimum Inhibitory Concentration, Sarcina lutca 9341
From the text: as §1, §2

Bacillus sp. E 27859 = assay: as above; assay type: cell-based; details: for MIC: Bacillus, SP.E27859, Bacillus sp. E 27859, read-out: Minimum Inhibitory Concentration
From the text: as §1, §2

[1] = system: Paceilomyces variotl 25820; assay: as above; assay type: cell-based
From the text: as §1, §2

[2] = system: Streptococcus cellulosac 3313; assay: as above; assay type: cell-based; details: for MIC: Streptococcus, 3313, read-out: Minimum Inhibitory Concentration, Streptococcus cellulosac 3313
From the text: as §1, §2

MycoBacterium phiel 355 = assay: as above; assay type: cell-based; details: for MIC: Mycobacterium, 355, read-out: Minimum Inhibitory Concentration, MycoBacterium phiel 355
From the text: as §1, §2

[3] = system: Streptococcus faecium 8043; assay: as above; assay type: cell-based; details: for MIC: Enterococcus faecium, 8043, Streptococcus faecium 8043, read-out: Minimum Inhibitory Concentration
From the text: as §1, §2

Staph. aureus 6538 = assay: as above; assay type: cell-based; details: for MIC: Staphylococcus aureus, 6538, read-out: Minimum Inhibitory Concentration, Staph. aureus 6538
From the text: as §1, §2

Bacillus subtilis 583 = assay: as above; assay type: cell-based; details: for MIC: Bacillus subtilis, 583, Bacillus subtilis 583 (NRRL), read-out: Minimum Inhibitory Concentration
From the text: as §1, §2

rumen fluid = details: control 100
[4] = Oral antihypertensive activity: blood pressure and heart rate (Table 9); assay type: in vivo; details: oral dose 10 mg/kg
From the text: Compounds of formula I, and their pharmaceutically acceptable salts are orally active as antihypertensive agents.

Treponema hyodysenteriae = assay: Activity against Treponema hyodysenteriae (MIC, blood agar plates); assay type: cell-based; details: 42° C., anaerobic
From the text: Testing for activity against Treponema hyodysenteriae, a cause of swine dysentery consisted of inoculation of blood agar plates containing a series of two or fourfold dilutions of the monensin urethane derivatives with tenfold dilutions of the T. hyodysenteriae strain.

For `CCCCNC(=O)OCC1(O)OC(C2CC(C)C(C3(CC)CCC(C4(C)CCC5(CC(O)C(C)C(C(C)C(OC)C(C)C(=O)O)O5)O4)O3)O2)C(C)CC1C` (stereo not drawn) [Monensin A, N-butylurethane], the MIC (Bacillus megaterium 8CU) was 0.8 µg/mL (≈ 1.04 µM), the MIC (Bacillus sp. TA 27860) was 0.4 µg/mL (≈ 0.519 µM) and the MIC (Sarcina lutca 9341) was 1.6 µg/mL (≈ 2.08 µM). The MIC (Bacillus sp. E 27859) was 0.2 µg/mL (≈ 0.26 µM), the MIC ([1]; read-out: Minimum Inhibitory Concentration, Paceilomyces variotl 25820) was 6.3 µg/mL (≈ 8.18 µM) and the MIC [2] was 3.1 µg/mL (≈ 4.03 µM). The MIC (MycoBacterium phiel 355) was 6.3 µg/mL (≈ 8.18 µM), the MIC [3] was 0.2 µg/mL (≈ 0.26 µM) and the MIC (Staph. aureus 6538) was 1.6 µg/mL (≈ 2.08 µM). The MIC (Bacillus subtilis 583) was 0.4 µg/mL (≈ 0.519 µM).
For `CCC1(C2OC(C3OC(O)(COC(=O)NC)C(C)CC3C)CC2C)CCC(C2(C)CCC3(CC(O)C(C)C(C(C)C(OC)C(C)C(=O)O)O3)O2)O1` (stereo not drawn) [Monensin A, n-methylurethane], the MIC (Bacillus megaterium 8CU) was 6.3 µg/mL (≈ 8.65 µM), the MIC (Bacillus sp. TA 27860) was 12.5 µg/mL (≈ 17.2 µM) and the MIC (Sarcina lutca 9341) was 25 µg/mL (≈ 34.3 µM). It also gave an MIC (Bacillus sp. E 27859) of 6.3 µg/mL (≈ 8.65 µM), an MIC [3] of 1.6 µg/mL (≈ 2.2 µM) and an MIC (Staph. aureus 6538) of 25 µg/mL (≈ 34.3 µM). It also gave an MIC (Bacillus subtilis 583) of 1.6 µg/mL (≈ 2.2 µM).
With `COC(C(C)C(=O)O)C(C)C1OC2(CCC(C)(C3CCC(C)(C4OC(C5OC(O)(COC(=O)NCCc6ccccc6)C(C)CC5C)CC4C)O3)O2)CC(O)C1C` (stereo not drawn) [Monensin B, 2-phenethylurethane] the “Rate of Gas Production, Percent Production of Control Fermentations” value (rumen fluid; 10 ppm) was 93%, the “Total VFA, Percent Production of Control Fermentations” value (“Total VFA, Percent Production” below) (rumen fluid; 10 ppm) was 157.8% and the “Rate of Gas Production, Percent Production of Control Fermentations” value (rumen fluid; 50 ppm) was 92%. The “Total VFA, Percent Production” value (rumen fluid; 50 ppm) was 149.1%, the “Day of Maximum Change, Blood Pressure” value [4] was 2 days and the “Day of Maximum Change, Heart Rate” value [4] was 3 days. The “Maximum Change (%), Blood Pressure” value [4] was 13%, the “Maximum Change (%), Heart Rate” value [4] was 14% and the “Mean Blood Pressure at time of maximum effect” value ([4]; at time of maximum effect) was 189 mm Hg. For the same compound, the “Mean Blood Pressure before treatment” value ([4]; before treatment) was 216 mm Hg, the MIC (Treponema hyodysenteriae; 48 hours, 2-phenethylurethane (natural product)) was 0.4-2.0 meg/ml and the MIC (Treponema hyodysenteriae; 48 hours, 2-phenethylurethane (synthetic product)) was 2.0 meg/ml. It also gave an MIC (Bacillus megaterium 8CU) of 3.1 µg/mL (≈ 3.86 µM), an MIC (Bacillus sp. TA 27860) of 3.1 µg/mL (≈ 3.86 µM) and an MIC (Sarcina lutca 9341) of 3.1 µg/mL (≈ 3.86 µM). For the same compound, the MIC (Bacillus sp. E 27859) was 1.6 µg/mL (≈ 1.99 µM), the MIC [2] was 12.5 µg/mL (≈ 15.5 µM) and the MIC (MycoBacterium phiel 355) was 25 µg/mL (≈ 31.1 µM). For the same compound, the MIC [3] was 0.8 µg/mL (≈ 0.995 µM), the MIC (Staph. aureus 6538) was 6.3 µg/mL (≈ 7.84 µM) and the MIC (Bacillus subtilis 583) was 3.1 µg/mL (≈ 3.86 µM).
With `COC(C(C)C(=O)O)C(C)C1OC2(CCC(C)(C3CCC(C)(C4OC(C5OC(O)(COC(=O)NC(C)c6ccccc6)C(C)CC5C)CC4C)O3)O2)CC(O)C1C` [Monensin B, (R)-1-phenethylurethane] the “Rate of Gas Production, Percent Production of Control Fermentations” value (rumen fluid; 50 ppm) was 103.3%, the “Total VFA, Percent Production” value (rumen fluid; 50 ppm) was 82.7% and the MIC (Treponema hyodysenteriae; Brachyspira hyodysenteriae, 48 h) was 0.4 µg/mL (≈ 0.497 µM). For the same compound, the “Minimum Inhibitory Concentration” value (Bacillus megaterium 8CU; listed as Monensin B,(R)-1-phenethylurethane) was 1.6 meg/ml, the “Minimum Inhibitory Concentration” value (Bacillus sp. TA 27860; Bacillus sp. TA 27860, listed as Monensin B,(R)-1-phenethylurethane) was 1.6 meg/ml and the MIC (Sarcina lutca 9341) was 3.1 µg/mL (≈ 3.86 µM). For the same compound, the “Minimum Inhibitory Concentration” value (Bacillus sp. E 27859; Bacillus sp. E 27859, listed as Monensin B,(R)-1-phenethylurethane) was 0.4 meg/ml, the “Minimum Inhibitory Concentration” value ([1]; Paceilomyces variotl 25820, listed as Monensin B,(R)-1-phenethylurethane) was 3.1 meg/ml and the “Minimum Inhibitory Concentration” value ([2]; Streptococcus cellulosac 3313, listed as Monensin B,(R)-1-phenethylurethane) was 3.1 meg/ml. The MIC (MycoBacterium phiel 355) was 12.5 µg/mL (≈ 15.5 µM), the “Minimum Inhibitory Concentration” value ([3]; Streptococcus faecium 8043, listed as Monensin B,(R)-1-phenethylurethane) was 0.8 meg/ml and the “Minimum Inhibitory Concentration” value (Staph. aureus 6538; Staph. aureus 6538, listed as Monensin B,(R)-1-phenethylurethane) was 6.3 meg/ml. The MIC (Bacillus subtilis 583) was 1.6 µg/mL (≈ 1.99 µM).
For `COC(C(C)C(=O)O)C(C)C1OC2(CCC(C)(C3CCC(C)(C4OC(C5OC(O)(COC(=O)NC(C)c6ccccc6)C(C)CC5C)CC4C)O3)O2)CC(O)C1C` [Monensin B, (S)-1-phenethylurethane], the “Minimum Inhibitory Concentration” value (Bacillus megaterium 8CU; listed as Monensin B,(S)-1-phenethylurethane) was 0.4 meg/ml, the “Minimum Inhibitory Concentration” value (Bacillus sp. TA 27860; Bacillus sp. TA 27860, listed as Monensin B,(S)-1-phenethylurethane) was 0.2 meg/ml and the “Minimum Inhibitory Concentration” value (Sarcina lutca 9341; Sarcina lutca 9341) was 1.6 meg/ml. For the same compound, the “Minimum Inhibitory Concentration” value (Bacillus sp. E 27859; Bacillus sp. E 27859, listed as Monensin B,(S)-1-phenethylurethane) was 0.1 meg/ml, the “Minimum Inhibitory Concentration” value ([1]; Paceilomyces variotl 25820, listed as Monensin B,(S)-1-phenethylurethane) was 6.3 meg/ml and the “Minimum Inhibitory Concentration” value ([2]; Streptococcus cellulosac 3313, listed as Monensin B,(S)-1-phenethylurethane) was 6.3 meg/ml. For the same compound, the “Minimum Inhibitory Concentration” value (MycoBacterium phiel 355; MycoBacterium phiel 355) was 6.3 meg/ml, the “Minimum Inhibitory Concentration” value ([3]; Streptococcus faecium 8043, listed as Monensin B,(S)-1-phenethylurethane) was 0.2 meg/ml and the “Minimum Inhibitory Concentration” value (Staph. aureus 6538; Staph. aureus 6538, listed as Monensin B,(S)-1-phenethylurethane) was 1.6 meg/ml. The “Minimum Inhibitory Concentration” value (Bacillus subtilis 583; Bacillus subtilis 583 (NRRL)) was 0.8 meg/ml.
With `CC[C@@]1([C@@H]2O[C@@H]([C@H]3O[C@@](O)(CO)[C@H](C)C[C@@H]3C)C[C@@H]2C)CC[C@H]([C@]2(C)CC[C@]3(C[C@H](O)[C@@H](C)[C@@H]([C@@H](C)[C@@H](OC)[C@H](C)C(=O)O)O3)O2)O1` [Monensin] the “Rate of Gas Production, Percent Production of Control Fermentations” value (rumen fluid; 10 ppm) was 85%, the “Total VFA, Percent Production” value (rumen fluid; 10 ppm) was 110.7% and the “Rate of Gas Production, Percent Production of Control Fermentations” value (rumen fluid; 50 ppm) was 89%. For the same compound, the “Total VFA, Percent Production” value (rumen fluid; 50 ppm) was 105.3%.
Compound Monensin A, 2-phenylurethane has an MIC (Treponema hyodysenteriae; 48 hours) of 0.4 meg/ml.
